In US20090099169A1, “Benzofuran Compounds As EP1 Receptor Antagonists” (GLAXO GROUP LIMITED, priority 2006, published 2009):

Biological target: T1, human EP3 receptor (Homo sapiens, UniProt P43115)
T1 construct: expressed in transfected cells; host or cells: CHO-K1
T1 sequence (P43115 1-390): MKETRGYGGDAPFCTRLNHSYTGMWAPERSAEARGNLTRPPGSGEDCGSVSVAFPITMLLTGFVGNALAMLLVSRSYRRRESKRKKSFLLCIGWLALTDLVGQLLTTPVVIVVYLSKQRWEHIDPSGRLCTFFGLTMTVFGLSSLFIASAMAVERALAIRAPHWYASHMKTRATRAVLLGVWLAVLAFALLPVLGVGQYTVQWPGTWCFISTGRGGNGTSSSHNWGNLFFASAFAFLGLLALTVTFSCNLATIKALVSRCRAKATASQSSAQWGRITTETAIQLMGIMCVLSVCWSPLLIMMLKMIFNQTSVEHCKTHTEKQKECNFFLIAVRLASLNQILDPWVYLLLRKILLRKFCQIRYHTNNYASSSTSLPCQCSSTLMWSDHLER
Assay: human EP3 calcium mobilisation assay
Format: cell-based
Settings: CHO-K1 cells, antagonism of PGE2; averages of a number of experiments; read-out: functional pKi value (human EP3 calcium mobilisation assay) (converted)
Method: Briefly, the antagonist properties of compounds are assessed by their ability to inhibit the mobilisation of intracellular calcium ([Ca^2+]i) in response to activation of EP1 or EP3 receptors by the natural agonist hormone prostaglandin E2 (PGE2). Increasing concentrations of antagonist reduce the amount of calcium that a given concentration of PGE2 can mobilise. The net effect is to displace the PGE2 concentration-effect curve to higher concentrations of PGE2. The amount of calcium produced is assessed using a calcium-sensitive fluorescent dye such as Fluo-4, AM and a suitable instrument such as a Fluorimetric Imaging Plate Reader (FLIPR). Increasing amounts of [Ca^2+]i produced by receptor activation increase the amount of fluorescence produced by the dye and give rise to an increasing signal. The signal may be detected using the FLIPR instrument and the data generated may be analysed with suitable curve-fitting software.
The human EP1 or EP3 calcium mobilisation assay (hereafter referred to as ‘the calcium assay’) utilises Chinese hamster ovary-K1 (CHO-K1) cells into which a stable (PCIN; BioTechniques 20 (1996): 102-110) vector containing either EP1 or EP3 cDNA has previously been transfected. Cells are cultured in suitable flasks containing culture medium such as DMEM:F-12 supplemented with 10% v/v foetal calf serum, 2 mM L-glutamine, 0.25 mg/ml geneticin, 100 μM flurbiprofen and 10 μg/ml puromycin.
For assay, cells are harvested using a proprietary reagent that dislodges cells such as Versene. Cells are re-suspended in a suitable quantity of fresh culture media for introduction into a 384-well plate. Following incubation for 24 hours at 37° C. the culture media is replaced with a medium containing Fluo-4 and the detergent pluronic acid, and a further incubation takes place. Concentrations of compounds are then added to the plate in order to construct concentration-effect curves. This may be performed on the FLIPR in order to assess the agonist properties of the compounds. Concentrations of PGE2 are then added to the plate in order to assess the antagonist properties of the compounds.
The data so generated may be analysed by means of a computerised curve-fitting routine. The concentration of compound that elicits a half-maximal inhibition of the calcium mobilisation induced by PGE2 (pIC50) may then be estimated.

| Ki [µM] | SMILES |
| --- | --- |
| 0.501 to 10 | Cc1cc(C(=O)O)nn1Cc1cc(Cl)cc2cc(C(C)C)oc12 [Example 3, 1-{[5-Chloro-2-(1-methylethyl)-1-benzofuran-7-yl]methyl}-5-methyl-1H-pyrazole-3-carboxylic Acid] |
| 0.501 to 10 | CC(C)c1cc2cc(Cl)cc(Cc3ccc(C(=O)O)o3)c2o1 [Example 1, 5-{[5-Chloro-2-(1-methylethyl)-1-benzofuran-7-yl]methyl}-2-furancarboxylic Acid] |
